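How tested: cells in 96-well plates exposed to compound for 48 hours at five concentrations. The concentration for full growth arrest is given as TGI.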
Key:
Experiment in all cases: NCI tumour cell line growth inhibition, 48 h
[1] = tested on: 786-0 renal
[2] = tested on: A498 renal
[3] = tested on: A549 NSCLC
[4] = tested on: ACHN renal
[5] = tested on: CAKI-1 renal
[6] = tested on: COLO 205 colon
[7] = tested on: DLD-1 colon
[8] = tested on: DMS 114 small cell lung
[9] = tested on: DMS 273 small cell lung
[10] = tested on: HCC-2998 colon
[11] = tested on: HCT-116 colon
[12] = tested on: HCT-15 colon
[13] = tested on: HL-60(TB) leukemia
[14] = tested on: HOP-18 NSCLC
[15] = tested on: HOP-62 NSCLC
[16] = tested on: HOP-92 NSCLC
[17] = tested on: HT29 colon
[18] = tested on: IGROV1 ovarian
[19] = tested on: K-562 leukemia
[20] = tested on: KM12 colon
[21] = tested on: KM20L2 colon
[22] = tested on: LOX IMVI melanoma
[23] = tested on: LXFL 529 NSCLC
[24] = tested on: M14 melanoma
[25] = tested on: M19-MEL melanoma
[26] = tested on: MALME-3M melanoma
[27] = tested on: MOLT-4 leukemia
[28] = tested on: NCI-H226 lung
[29] = tested on: NCI-H23 lung
[30] = tested on: NCI-H460 lung
[31] = tested on: NCI-H522 lung
[32] = tested on: OVCAR-3 ovarian
[33] = tested on: OVCAR-4 ovarian
[34] = tested on: OVCAR-5 ovarian
[35] = tested on: OVCAR-8 ovarian
[36] = tested on: RPMI-8226 leukemia
[37] = tested on: SF-268 CNS
[38] = tested on: SF-295 CNS
[39] = tested on: SF-539 CNS
[40] = tested on: SK-MEL-2 melanoma
[41] = tested on: SK-MEL-28 melanoma
[42] = tested on: SK-MEL-5 melanoma
[43] = tested on: SK-OV-3 ovarian
[44] = tested on: SN12C renal
[45] = tested on: SNB-19 CNS
[46] = tested on: SNB-75 CNS
[47] = tested on: SR leukemia
[48] = tested on: SW-620 colon
[49] = tested on: TK-10 renal
[50] = tested on: U251 CNS
[51] = tested on: UACC-257 melanoma
[52] = tested on: UACC-62 melanoma
[53] = tested on: UO-31 renal
[54] = tested on: XF 498 CNS

Work on `COC1CC2C3/C(=N/Nc4ccc([N+](=O)[O-])cc4[N+](=O)[O-])CCC2(C)C3C1` (centres undefined) yielded a TGI [1] greater than 10 µM, a TGI [2] greater than 10 µM and a TGI [3] greater than 100 µM. For the same compound, the TGI [4] was greater than 10 µM, the TGI [5] was greater than 10 µM and the TGI [6] was greater than 10 µM. It also gave a TGI [7] greater than 10 µM, a TGI [8] greater than 100 µM and a TGI [9] greater than 10 µM. For the same compound, the TGI [10] was greater than 10 µM, the TGI [11] was greater than 100 µM and the TGI [12] was greater than 100 µM. It also gave a TGI [13] greater than 100 µM, a TGI [14] greater than 10 µM and a TGI [15] greater than 10 µM. The TGI [16] was greater than 10 µM, the TGI [17] was greater than 10 µM and the TGI [18] was greater than 10 µM. The TGI [19] was greater than 100 µM, the TGI [20] was greater than 100 µM and the TGI [21] was greater than 10 µM. It also gave a TGI [22] greater than 10 µM, a TGI [23] greater than 10 µM and a TGI [24] greater than 10 µM. For the same compound, the TGI [25] was greater than 10 µM, the TGI [26] was greater than 10 µM and the TGI [27] was greater than 100 µM. It also gave a TGI [28] greater than 10 µM, a TGI [29] greater than 10 µM and a TGI [30] greater than 100 µM. The TGI [31] was greater than 10 µM, the TGI [32] was greater than 10 µM and the TGI [33] was greater than 10 µM. For the same compound, the TGI [34] was greater than 10 µM, the TGI [35] was greater than 100 µM and the TGI [36] was greater than 100 µM. For the same compound, the TGI [37] was greater than 100 µM, the TGI [38] was greater than 10 µM and the TGI [39] was greater than 10 µM. For the same compound, the TGI [40] was greater than 10 µM, the TGI [41] was greater than 100 µM and the TGI [42] was greater than 10 µM. For the same compound, the TGI [43] was greater than 10 µM, the TGI [44] was greater than 10 µM and the TGI [45] was greater than 10 µM. It also gave a TGI [46] greater than 10 µM, a TGI [47] greater than 100 µM and a TGI [48] greater than 10 µM. For the same compound, the TGI [49] was greater than 100 µM, the TGI [50] was greater than 10 µM and the TGI [51] was greater than 100 µM. For the same compound, the TGI [52] was greater than 10 µM, the TGI [53] was greater than 10 µM and the TGI [54] was greater than 100 µM.

From PubChem BioAssay (NCI)
